Results on 51 molecules are retold here after patent US6958352B2, “Compounds for inhibiting insulin secretion and methods related thereto” (SmithKline Beecham Corporation, priority 2002, dated 2005).

Like-named read-outs stand apart in the source and are kept apart here. Bounds are passed on as bounds.

In this assay the target is T1, mitochondrial calcium/sodium antiporter (Rattus norvegicus, UniProt Q6AXS0).
T1 sequence (Q6AXS0 1-585): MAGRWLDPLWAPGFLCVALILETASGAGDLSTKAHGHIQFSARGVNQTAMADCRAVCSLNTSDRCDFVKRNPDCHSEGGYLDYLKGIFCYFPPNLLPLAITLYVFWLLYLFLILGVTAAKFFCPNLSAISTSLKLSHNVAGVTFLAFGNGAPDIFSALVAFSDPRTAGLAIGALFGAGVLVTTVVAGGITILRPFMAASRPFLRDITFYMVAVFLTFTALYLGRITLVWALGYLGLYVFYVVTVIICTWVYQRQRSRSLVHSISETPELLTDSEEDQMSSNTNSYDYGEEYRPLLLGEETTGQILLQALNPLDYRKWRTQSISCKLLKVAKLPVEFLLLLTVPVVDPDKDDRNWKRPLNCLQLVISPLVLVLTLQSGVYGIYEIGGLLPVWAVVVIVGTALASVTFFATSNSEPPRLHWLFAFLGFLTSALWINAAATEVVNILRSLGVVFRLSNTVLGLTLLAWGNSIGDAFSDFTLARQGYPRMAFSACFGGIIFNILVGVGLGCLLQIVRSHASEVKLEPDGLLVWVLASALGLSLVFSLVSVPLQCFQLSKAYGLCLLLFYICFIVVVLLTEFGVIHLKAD
The assay can be described thus: Inhibition of mitochondrial calcium/sodium antiporter activity (NaCl-induced mitochondrial calcium efflux, calcium green 5N fluorescence). The format is cell-based. The conditions noted are these: digitonin-permeabilized INS-1 cells, 20 mM NaCl. As to the method:
INS-1 rat insulinoma cells (see Example 16) were harvested by trypsinization, washed and resuspended at 10×10^6 cells/ml in assay buffer (250 mM sucrose, 10 mM HEPES, 2.5 mM K2HPO4, 5 mM succinate, pH 7.4) containing 0.007% digitonin, 60 μM CaCl2 and 0.05 μM calcium green 5N (Molecular Probes, Inc., Eugene, Oreg.). After a five-minute calcium loading incubation, ruthenium red (1 μM; Sigma, St. Louis, Mo.) was added to block further calcium uptake by mitochondria. Cell suspensions were dispensed into 96-well plates (100 μl per well, 1×10^6 cells per well) and candidate agents (i.e., candidate mitochondrial calcium/sodium antiporter inhibitors) were added to some sets of triplicate wells at concentrations of 1, 10 or 100 μM, while other sets of wells provided appropriate control conditions (e.g., buffer and vehicle controls). Baseline fluorescence measurements were made using a multiwell plate fluorimeter (F-MAX™, Molecular Devices Corp., Sunnyvale, Calif.; or PolarStar™, BMG Labtechnologies, Inc., Durham, N.C.) according to the manufacturer's instructions. Calcium efflux from mitochondria was then induced by adding NaCl to all wells to achieve a final concentration of 20 mM, and the rate of change in fluorescence in each well was monitored […] for two minutes and quantified using software included with the plate reader.

Where [1] appears, read: Table 2, preferred compounds, read-out: IC50 ≦ 10 μM.
Setting [2] is: Table 3, more preferred compounds, read-out: IC50 ≦ 1 μM.

The term IC50 denotes the point on the concentration scale where inhibition reaches its midpoint. On to `COC(=O)CSC(c1ccccc1C)c1ccccc1NC(=O)c1ccccc1` (centres unmarked) [Compound 34c], for which the IC50 under setting [1] was ≤ 10 µM.

In the case of `COC(=O)CSCC(c1cc(Br)ccc1N)c1ccccc1F` (centres unmarked) [Compound 20c], the IC50 is, setting by setting: under setting [1], ≤ 10 µM; under setting [2], ≤ 1 µM.

Turning to `Nc1ccc(Cl)cc1C(SCCNC(=O)c1ccc([N+](=O)[O-])cc1)c1ccccc1Cl` (centres unmarked) [Compound 16g], the IC50 was ≤ 10 µM under setting [1] and ≤ 1 µM under setting [2].

For `Nc1ccc(Cl)cc1C(SCCNS(=O)(=O)c1ccccc1)c1ccccc1Cl` (centres unmarked) [Compound 18b], the IC50 under setting [1] was ≤ 10 µM and the half-maximal inhibitory concentration (IC50) under setting [2] was ≤ 1 µM.

With `COC(=O)CSC(c1ccc(C)c(C)c1)c1cc(Cl)ccc1N` (centres unmarked) [Compound 11l], the IC50 under setting [1] is ≤ 10 µM.

As for `Nc1ccc(Cl)cc1C(SCC(=O)NCc1ccccc1)c1ccccc1Cl` (centres unmarked) [Compound 13f], the 50% inhibitory concentration (IC50) reads like this: under setting [1], ≤ 10 µM; under setting [2], ≤ 1 µM.

For `CN(C)C(=O)CSC(c1cc(Cl)ccc1N)c1ccccc1Cl` (centres unmarked) [Compound 13b], the IC50 by setting is: under setting [1], ≤ 10 µM; under setting [2], ≤ 1 µM.

Regarding `Cc1ccc(C)c(C(SCc2nc(C)no2)c2cc(Cl)ccc2NC(=O)C(F)(F)F)c1` (centres unmarked) [Compound 14ma], the 50% inhibitory concentration (IC50) under setting [1] was ≤ 10 µM.

Turning to `COc1ccc(S(=O)(=O)N2CCC(CSC(c3cc(Cl)ccc3N)C3CCCCC3)CC2)cc1OC` (centres unmarked) [Compound 40], the IC50 under setting [2] was ≤ 1 µM.

For `Nc1ccc(Cl)cc1C(SCCNC(=O)Nc1cccc(F)c1)c1ccccc1Cl` (centres unmarked) [Compound 17a], the 50% inhibitory concentration (IC50) under setting [1] is ≤ 10 µM.

`Cc1noc(C[S+]([O-])CC(c2cc(Cl)ccc2N)c2ccccc2Cl)n1` (centres unmarked) [Compound 38a]: the half-maximal inhibitory concentration (IC50) under setting [1] is ≤ 10 µM.

As to `COc1ccc(C(=O)NCCSC(c2cc(Cl)ccc2N)C(C)C)cc1OC` (centres unmarked) [Compound 16z], under setting [2], the IC50 was ≤ 1 µM.

As for `COc1cc(C(=O)N2CCC(CSC(c3cc(F)ccc3N)C3CCCCC3)CC2)cc(OC)c1OC` (centres unmarked) [Compound 41b], the IC50 under setting [2] is ≤ 1 µM.

Consider `COC(=O)CSC(c1cc(Cl)ccc1N)C1CCCCC1` (centres unmarked) [Compound 11ak], for which the 50% inhibitory concentration (IC50) under setting [2] was ≤ 1 µM.

For the molecule `Nc1ccc(Cl)cc1C(SCC(=O)NCC(c1ccccc1)c1ccccc1)c1ccccc1Cl` (centres unmarked) [Compound 13i], the half-maximal inhibitory concentration (IC50) is ≤ 10 µM under setting [1] and ≤ 1 µM under setting [2].

Take `Nc1ccc(Cl)cc1C(SCCO)c1ccccc1Cl` (centres unmarked) [Compound 15d]: the half-inhibitory concentration (IC50) reads like this: under setting [1], ≤ 10 µM; under setting [2], ≤ 1 µM.

For the molecule `COc1ccc(S(=O)(=O)NCCSC(c2cc(Cl)ccc2N)C2CCCCC2)cc1OC` (centres unmarked) [Compound 18f], under setting [2], the IC50 was ≤ 1 µM.

Consider `Nc1ccc(Cl)cc1C(SCCNC(=O)c1cccnc1)c1ccccc1Cl` (centres unmarked) [Compound 16k], for which the IC50 runs as follows: under setting [1], ≤ 10 µM; under setting [2], ≤ 1 µM.

As to `COC(=O)CSC(c1nc2ccccc2s1)c1cc(Cl)ccc1N` (centres unmarked) [Compound 11f], the IC50 under setting [1] is ≤ 10 µM.

As to `COc1ccc(NC(=O)NCCSC(c2cc(Cl)ccc2N)c2ccccc2Cl)c(OC)c1` (centres unmarked) [Compound 17f], the IC50 was ≤ 10 µM under setting [1] and ≤ 1 µM under setting [2].

`Nc1ccc(Cl)cc1C(SCCCO)c1ccccc1Cl` (centres unmarked) [Compound 15k]: the concentration for half-maximal inhibition (IC50) is, setting by setting: under setting [1], ≤ 10 µM; under setting [2], ≤ 1 µM.

Regarding `COC(=O)CSC(c1ccccc1)c1cc([N+](=O)[O-])ccc1N` (centres unmarked) [Compound 11t], the IC50 under setting [1] is ≤ 10 µM.

Regarding `CCCNC(=O)CSC(c1cc(Cl)ccc1N)c1ccccc1Cl` (centres unmarked) [Compound 13k], the IC50 under setting [1] is ≤ 10 µM and the 50% inhibitory concentration (IC50) under setting [2] is ≤ 1 µM.

`COC(=O)CSC(c1cc(Cl)ccc1N)c1cccn1C` (centres unmarked) [Compound 11h]: the IC50 by setting is: under setting [1], ≤ 10 µM; under setting [2], ≤ 1 µM.

On to `COc1cc(NC(=S)NCCSC(c2cc(Cl)ccc2N)C2CCCCC2)cc(OC)c1OC` (centres unmarked) [Compound 17i], for which the concentration for half-maximal inhibition (IC50) under setting [2] is ≤ 1 µM.

For `Cc1noc(CSC(c2cc(Cl)ccc2N)c2ccccc2Cl)n1` (centres unmarked) [Compound 14b], the IC50 is, setting by setting: under setting [1], ≤ 10 µM; under setting [2], ≤ 1 µM.

For `COc1ccc(C(=O)NCCSC(c2cc(Cl)ccc2N)C2CCCCC2)cc1` (centres unmarked) [Compound 16s], the IC50 under setting [2] was ≤ 1 µM.

For `Nc1ccc(Cl)cc1C(SCCNC(=O)c1ccc(Cl)cc1Cl)c1ccccc1Cl` (centres unmarked) [Compound 16c], the IC50 under setting [1] is ≤ 10 µM.

As to `COC(=O)CSC(c1cc(C)cc(C)c1)c1cc(Cl)ccc1N` (centres unmarked) [Compound 11d], the IC50 was ≤ 10 µM under setting [1] and ≤ 1 µM under setting [2].

Regarding `COC(=O)CSC(c1cc(Cl)ccc1N)c1cccc(C)c1C` (centres unmarked) [Compound 11k], the half-inhibitory concentration (IC50) under setting [1] is ≤ 10 µM.

Consider `COc1ccc(C(=O)NCCSC(c2ccccc2N)C2CCCCC2)cc1OC` (centres unmarked) [Compound 16ae], for which the IC50 under setting [2] is ≤ 1 µM.

Take `CNC(=O)CSC(c1cc(Cl)ccc1N)c1ccccc1Cl` (centres unmarked) [Compound 13a]: under setting [1], the half-inhibitory concentration (IC50) is ≤ 10 µM.

On to `O=C(CSC(c1ccccc1)c1cc(Cl)ccc1O)N1CCCCC1` (centres unmarked) [Compound 13ai], for which the IC50 under setting [1] was ≤ 10 µM.

In the case of `CS(=O)(=O)NCCSC(c1cc(Cl)ccc1N)c1ccccc1Cl` (centres unmarked) [Compound 18e], the IC50 reads like this: under setting [1], ≤ 10 µM; under setting [2], ≤ 1 µM.

Regarding `Nc1ccc(Cl)cc1C(SCC(=O)NCCc1cc(I)c(O)c(I)c1)c1ccccc1Cl` (centres unmarked) [Compound 13u], the half-inhibitory concentration (IC50) by setting is: under setting [1], ≤ 10 µM; under setting [2], ≤ 1 µM.

`COC(=O)CSC(c1cc(Cl)ccc1N)c1ccccc1Cl` (centres unmarked) [Compound 11s]: the IC50 is, setting by setting: under setting [1], ≤ 10 µM; under setting [2], ≤ 1 µM.

For `COC(=O)CSC(c1cc(C)ccc1C)c1cc(Cl)ccc1N` (centres unmarked) [Compound 11m], the 50% inhibitory concentration (IC50) under setting [1] is ≤ 10 µM.

`Nc1ccc(Cl)cc1C(SCCNC(=O)Nc1cccc(Cl)c1Cl)c1ccccc1Cl` (centres unmarked) [Compound 17e]: the IC50 under setting [1] was ≤ 10 µM.

On to `Cc1noc(CSC(c2cc(Cl)ccc2N)c2cccc(C)c2C)n1` (centres unmarked) [Compound 14k], for which the IC50 runs as follows: under setting [1], ≤ 10 µM; under setting [2], ≤ 1 µM.

With `COc1cc(NC(=O)NCCSC(c2cc(Cl)ccc2N)C2CCCCC2)cc(OC)c1OC` (centres unmarked) [Compound 17h], the IC50 under setting [2] was ≤ 1 µM.

Consider `COC(=O)CSCC(c1cc(Cl)ccc1N)c1ccccc1F` (centres unmarked) [Compound 20b], for which the IC50 is, setting by setting: under setting [1], ≤ 10 µM; under setting [2], ≤ 1 µM.

With `Nc1ccc(Cl)cc1C(SCCNC(=O)Nc1cc(F)ccc1F)c1ccccc1Cl` (centres unmarked) [Compound 17d], the half-maximal inhibitory concentration (IC50) under setting [1] is ≤ 10 µM.

In the case of `Nc1ccc(Cl)cc1C(SCCNC(=O)c1cccc(Br)c1)c1ccccc1Cl` (centres unmarked) [Compound 16e], the IC50 is ≤ 10 µM under setting [1] and ≤ 1 µM under setting [2].

Consider `Nc1ccc(Cl)cc1C(Sc1ccccn1)c1ccccc1Cl` (centres unmarked) [Compound 15f], for which the 50% inhibitory concentration (IC50) was ≤ 10 µM under setting [1] and ≤ 1 µM under setting [2].

Consider `Nc1ccc(Cl)cc1C(SCC(=O)NCC1CCCCC1)c1ccccc1Cl` (centres unmarked) [Compound 13n], for which the IC50 was ≤ 10 µM under setting [1] and ≤ 1 µM under setting [2].

For the molecule `CS(=O)(=O)c1ccc(C(=O)NCCSC(c2cc(Cl)ccc2N)C2CCCCC2)cc1` (centres unmarked) [Compound 16x], the IC50 under setting [2] is ≤ 1 µM.

Take `COC(=O)CSC(c1cc(Cl)ccc1N)c1sccc1C` (centres unmarked) [Compound 11c]: the IC50 under setting [1] was ≤ 10 µM.

With `COC(=O)CSC(c1cccc(C)c1)c1cc(Cl)ccc1N` (centres unmarked) [Compound 11i], the IC50 under setting [1] is ≤ 10 µM.

Consider `COc1ccc(S(=O)(=O)NCCSC(c2cc(F)ccc2N)C2CCCCC2)cc1OC` (centres unmarked) [Compound 18g], for which, under setting [2], the half-inhibitory concentration (IC50) is ≤ 1 µM.

In the case of `Nc1ccc(Cl)cc1C(SCCNS(=O)(=O)c1ccc(OC(F)(F)F)cc1)c1ccccc1Cl` (centres unmarked) [Compound 18d], the IC50 under setting [1] is ≤ 10 µM.

In the case of `Cc1noc(CSCC(c2cc(Cl)ccc2N)c2ccccc2Cl)n1` (centres unmarked) [Compound 22a], the IC50 is, setting by setting: under setting [1], ≤ 10 µM; under setting [2], ≤ 1 µM.
